Results published in patent publication EP4635949A1 (Jiangsu NHWA Pharmaceutical Co., Ltd, priority 2022, dated 2024).
Read-outs that look alike come from different tables or passages of the source. Marks after values point to notes of the source that are not given here.

How the values were obtained:
[1] = target: T1, OX1 receptor (Homo sapiens, UniProt O43613); assay: Orexin target function test (Cisbio HTRF IP-one), CHO-K1-OX1 cells, antagonism of EC80 Orexin A; assay type: cell-based
T1 construct: host or cells: CHO-K1
T1 sequence (O43613 1-425): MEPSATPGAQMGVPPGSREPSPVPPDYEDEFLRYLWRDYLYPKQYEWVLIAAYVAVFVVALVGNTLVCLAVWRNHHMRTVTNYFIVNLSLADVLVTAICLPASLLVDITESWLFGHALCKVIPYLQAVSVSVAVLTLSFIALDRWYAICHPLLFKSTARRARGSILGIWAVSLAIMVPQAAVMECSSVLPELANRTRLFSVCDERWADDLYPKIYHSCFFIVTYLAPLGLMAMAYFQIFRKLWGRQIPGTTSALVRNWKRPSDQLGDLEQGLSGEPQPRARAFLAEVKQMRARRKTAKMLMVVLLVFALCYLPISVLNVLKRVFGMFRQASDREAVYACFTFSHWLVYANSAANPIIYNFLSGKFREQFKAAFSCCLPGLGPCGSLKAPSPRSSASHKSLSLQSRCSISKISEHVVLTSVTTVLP
Procedure: (§1) Using Cisbio HTRF IP-one kit to detect the changes in IP-one concentration of orexin receptor (OX1/OX2) signaling pathway by microplate reader, and calculating the IC50 value of the compound to evaluate the antagonistic effect of the compound on OX1 and OX2 receptors.
(§2) The cells were centrifuged at 1000 rpm for 5 minutes and the supernatant was discarded. 3 mL of PBS was added, and gently blown with a pipette to mix. After centrifugation at 1000 rpm for 5 minutes again, the supernatant was discarded. […] Based on the antagonistic effect values of the compound samples at different concentrations, the GraphPad Prism software was used to fit the orexin receptor antagonism curve of the compound samples and calculate the IC50.

[2] = target: T2, OX2 receptor (Homo sapiens, UniProt O43614); assay: Orexin target function test (Cisbio HTRF IP-one), CHO-K1-OX2 cells, antagonism of EC80 Orexin 2 receptor agonist; assay type: cell-based
T2 construct: host or cells: CHO-K1
T2 sequence (O43614 1-444): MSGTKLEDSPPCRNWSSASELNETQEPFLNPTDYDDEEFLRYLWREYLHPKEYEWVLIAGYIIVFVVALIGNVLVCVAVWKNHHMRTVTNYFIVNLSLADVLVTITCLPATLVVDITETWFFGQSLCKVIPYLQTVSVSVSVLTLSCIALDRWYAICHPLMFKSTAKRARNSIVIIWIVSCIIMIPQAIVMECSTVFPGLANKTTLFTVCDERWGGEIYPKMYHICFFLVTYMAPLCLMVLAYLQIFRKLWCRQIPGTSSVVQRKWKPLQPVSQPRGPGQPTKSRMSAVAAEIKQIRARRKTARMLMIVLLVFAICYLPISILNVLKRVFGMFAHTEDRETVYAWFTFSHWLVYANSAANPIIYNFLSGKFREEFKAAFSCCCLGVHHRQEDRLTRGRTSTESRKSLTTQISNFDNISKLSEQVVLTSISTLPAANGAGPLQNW
Procedure: as §1, §2

[3] = test system: SD rats; assay: Autonomous activity of rats; assay type: in vivo
Procedure: The animals were placed in the test box immediately after administration, and the activity distance of the animals within 60 minutes was recorded and analyzed using Top Scan Version 3.0. […] The experimental data were expressed by mean ± standard deviation (Mean ± SD), and SPSS 21.0 statistical software was used for one-way analysis of variance. The Dunnett's test was used for pairwise comparison, and p<0.05 was represented as *.

[4] = in vivo; settings: rat
[5] = CHO-K1-OX1 cells, IP-one, read-out: hOXIR IC50
[6] = CHO-K1-OX2 cells, IP-one, read-out: hOX2R IC50
[7] = male SD rats, dose 10 mg/kg, versus blank vehicle group
[8] = male SD rats, dose 10 mg/kg, within 60 minutes, Mean ± SD
[9] = male SD rats, dose 30 mg/kg, versus blank vehicle group
[10] = male SD rats, dose 30 mg/kg, within 60 minutes, Mean ± SD
[11] = male SD rats, dose 50 mg/kg, versus blank vehicle group
[12] = male SD rats, dose 50 mg/kg, within 60 minutes, Mean ± SD
[13] = ratio of OX1R IC50 to OX2R IC50

SMILES | IC50 [1, 5] [µM] | Selectivity [2] | IC50 [2, 6] [µM] | Inhibition rate(%) [3, 7] [%] | Activity distance (mm) [3, 8] [mm] | Inhibition rate(%) [3, 9] | Activity distance (mm) [3, 10] [mm] | Inhibition rate(%) [3, 11] | Activity distance (mm) [3, 12] [mm] | IC50 [1] [µM] | IC50 [2] [µM] | Activity distance (mm) ([3]; rat, in vivo, 10 mg/kg) | Inhibition rate(%) ([3]; rat, in vivo, 10 mg/kg) | Activity distance (mm) ([3]; rat, in vivo, 30 mg/kg) | Inhibition rate(%) ([3]; rat, in vivo, 30 mg/kg) | AUC(0-t) ([4]; male, SD, plasma, iv, 1 mg/kg) [ng·h/mL] | Cmax ([4]; male, SD, plasma, iv, 1 mg/kg) [ng/mL] | AUC(0-t) ([4]; male, SD, plasma, po, 30 mg/kg) [ng·h/mL] | Cmax ([4]; male, SD, plasma, po, 30 mg/kg) [ng/mL] | bioavailability ([4]; male, SD, plasma, po, 30 mg/kg) [%] | also measured
Cc1nc(C2=CC3CN(C(=O)c4c(F)cccc4-n4nccn4)CC3C2)nc(C)c1F (stereo not drawn) [Compound 1, (5-(5-fluoro-4,6-dimethylpyrimidin-2-yl)-3,3a,4,6a-tetrahydrocyclopenta[c]pyrrol-2(1H)-yl)(2-fluoro-6-(2H-1,2,3-triazol-2-yl)phenyl)methanone] | 1.13 | 80 | 0.014 | 16.33 | 59434.65±1478.32 | 23.37* % | 54433.35±3341.26 | 59.81* % | 28548.56±1238.05 | – | – | – | – | – | – | – | – | – | – | – | –
Cc1nc(C2=CC3CN(C(=O)c4ccc(F)cc4-n4nccn4)CC3C2)nc(C)c1F (stereo not drawn) [Compound 2, (4-fluoro-2-(2H-1,2,3-triazol-2-yl)phenyl)(5-(5-fluoro-4,6-dimethylpyrimidin-2-yl)-3,3a,4,6a-tetrahydrocyclopenta[c]pyrrol-2(1H)-yl)methanone] | – | 128 | – | – | – | – | – | – | – | 2.3 | 0.018 | 52097.9±18671.68 | 26.66* % | 46276.83±15906.44 | 34.85 * % | 869 | 1880 | 15000 | 7480 | 57.6 | Activity distance (mm) ([3]; rat, in vivo, 50 mg/kg): 37866.51±7149.48 mm; Inhibition rate(%) ([3]; rat, in vivo, 50 mg/kg): 46.69* %
COc1ccc(C(=O)N2CC3C=C(c4nc(C)c(F)c(C)n4)CC3C2)c(-n2nccn2)c1 (stereo not drawn) [Compound 5, (5-(5-fluoro-4,6-dimethylpyrimidin-2-yl)-3,3a,4,6a-tetrahydrocyclopenta[c]pyrrol-2(1H)-yl)(4-methoxy-2-(2H-1,2,3-triazol-2-yl)phenyl)methanone] | – | 171 | – | – | – | – | – | – | – | 2.8 | 0.016 | 44396.01±2185.62 | 37.50* % | 32526.47±1464.45 | 45.79* % | 738 | 1600 | 18500 | 13800 | 83.6 | –
COc1nc(C2=CC3CN(C(=O)c4c(F)cccc4-n4nccn4)CC3C2)nc(C)c1F (stereo not drawn) [Compound 8, (5-(5-fluoro-4-methoxy-6-methylpyrimidin-2-yl)-3,3a,4,6a-tetrahydrocyclopenta[c]pyrrol-2(1H)-yl)(2-fluoro-6-(2H-1,2,3-triazol-2-yl)phenyl)methanone] | 1.24 | – | 0.012 | – | – | – | – | – | – | – | – | – | – | – | – | 808 | 3220 | 16900 | 13800 | 69.8 | Selectivity [2, 13]: 100
Cc1nc(C2=CC3CN(C(=O)c4c(F)cccc4-n4nccn4)CC3C2)nc2c1COC2 (stereo not drawn) [Compound 20, (2-fluoro-6-(2H-1,2,3-triazol-2-yl)phenyl)(5-(4-methyl-5,7-dihydrofuro[3,4-d]pyrimidin-2-yl)-3,3a,4,6a-tetrahydrocyclopenta[c]pyrrol-2(1H)-yl)methanone] | 3.17 | – | 0.0245 | 14.67 | 60610.23±1657.26 | 24.24* % | 53815.36±1401.21 | 31.17* % | 48892.70±2164.16 | – | – | – | – | – | – | – | – | – | – | – | Selectivity [2, 13]: 129
COc1cc(-n2nccn2)c(C(=O)N2CC3C=C(c4nc(C)c(F)c(C)n4)CC3C2)cn1 (stereo not drawn) [Compound 22] | – | 185 | – | – | – | – | – | – | – | 2.78 | 0.015 | 43970.97±9243.91 | 38.10* % | 37396.46±6850.26 | 47.35* % | – | – | – | – | – | Activity distance (mm) ([3]; rat, in vivo, 50 mg/kg): 33132.59±9708.72 mm; Inhibition rate(%) ([3]; rat, in vivo, 50 mg/kg): 56.36* %; AUC(0-t) ([4]; in vivo, iv, 1 mg/kg): 305 ng·h/mL; Cmax ([4]; in vivo, iv, 1 mg/kg): 943 ng/mL; AUC(0-t) ([4]; in vivo, po, 30 mg/kg): 2640 ng·h/mL; Cmax ([4]; in vivo, po, 30 mg/kg): 1940 ng/mL; bioavailability ([4]; in vivo, po, 30 mg/kg): 28.9%
